Assay results: US20230406849A1, “KRAS INHIBITORS FOR TREATMENT OF CANCERS” (TYLIGAND BIOSCIENCE (SHANGHAI) LIMITED, priority 2020, published 2023)
Read-outs that look alike come from different tables or passages of the source.

Experiments:
[1] = tested on: human pancreatic cancer Mia PaCa-2 cells xenograft; assay: Subcutaneous xenograft tumor model of Mia PaCa-2 cells in BALB/c nude mouse; format: in vivo; conditions: Mia PaCa-2 xenograft, BALB/c nude mice, gavage once a day; for TGI(%): Day 21
Experimental: The in vivo efficacy of the representative compounds of the present disclosure in the subcutaneous xenograft tumor model of human pancreatic cancer Mia PaCa-2 cells was evaluated.
[Test materials]: BALB/c nude mice of 6-8 weeks, female, Zhejiang Vital River Laboratory Animal Technology Co., Ltd. Human pancreatic cancer Mia PaCa-2 cells (ATCC, Cat #: CRL-1420). Matrigel (Matrigel, Corning, Cat. No. 356234).
[Experimental procedure]: 0.2 mL (5×10^6) Mia PaCa-2 cells (plus Matrigel, volume ratio 1:1) were inoculated subcutaneously on the right back dorsal of each mouse. […] During the assay, tumor volumes and body weights were measured twice a week.
The tumor volume was calculated according to the following formula: V=0.5a×b^2, where a and b represent the long and short diameters of the tumor, respectively.

[2] = molecular target: T1, CYP2C9 (Homo sapiens, UniProt P11712); assay: CYP inhibition in human liver microsomes; format: in vitro ADME; conditions: pH 7.4, read-out: CYP inhibition rate (%) 2C9
T1 construct: Human liver microsomes (Corning, Cat #452161); tissue Corning 452161; host or cells: human liver microsomes
T1 sequence (P11712 whole entry): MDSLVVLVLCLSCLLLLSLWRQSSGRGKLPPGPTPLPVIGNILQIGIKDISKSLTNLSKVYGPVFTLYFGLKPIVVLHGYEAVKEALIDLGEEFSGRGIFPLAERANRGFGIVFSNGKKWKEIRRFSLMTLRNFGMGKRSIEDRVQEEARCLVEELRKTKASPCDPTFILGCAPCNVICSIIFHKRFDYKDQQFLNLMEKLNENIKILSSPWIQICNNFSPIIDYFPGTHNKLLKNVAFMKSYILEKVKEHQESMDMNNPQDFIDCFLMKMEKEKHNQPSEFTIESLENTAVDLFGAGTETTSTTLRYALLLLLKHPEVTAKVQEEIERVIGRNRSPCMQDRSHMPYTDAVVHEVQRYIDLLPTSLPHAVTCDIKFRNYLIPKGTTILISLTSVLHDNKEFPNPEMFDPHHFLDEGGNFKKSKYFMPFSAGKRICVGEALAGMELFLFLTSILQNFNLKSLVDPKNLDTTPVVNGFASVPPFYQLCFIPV
Excerpt: (§1) The inhibitory effect of the compounds of the present disclosure on the cytochrome P450 enzyme system was investigated in this assay.
(§2) [Test materials]: Human liver microsomes (Corning, Cat #452161); Reduced nicotinamide adenine dinucleotide phosphate (NADPH, MCE, Cat #HY-F0003/CS-4998); Phenacetin, Diclofenac, α-naphthoflavone, Omeprazole and Ketoconazole were purchased from TCI; S-Mephenytoin and testosterone were purchased from CAYMAN; Midazolam was purchased from Bioreclamation IVT; Quinidine was purchased from Damas-beta; Sulfaphenazole was purchased from MCE; Bufuralol was purchased from TRC.
(§3) [Experimental procedure]: Preparation of 0.1M potassium phosphate buffer (K-buffer): 100 mM potassium phosphate buffer (K-buffer) was prepared with potassium dihydrogen phosphate and dipotassium hydrogen phosphate, and adjusted to pH 7.4.
(§4) Preparation of 400× test compound and reference inhibitor solutions: 8 μL of 10 mM stock solution of the test compounds was mixed with 12 μL of acetonitrile. Preparation of inhibitor cocktail solution for CYP1A2, CYP2C9 and CYP2D6: […] of 1 mM α-naphthoflavone, 10 µL of 40 mM Sulfaphenazole, 10 μL of 10 mM Quinidine and 8 μL DMSO were mixed. Preparation of inhibitor cocktail solution for CYP3A4 and CYP2C19: 8 μL of DMSO solution was mixed with 12 μL of acetonitrile.
(§5) Preparation of 4×NADPH potassium phosphate solution: 66.7 mg of NADPH was added to 10 mL of K-buffer pH7.4. Preparation of 4× substrate potassium phosphate solution: the different substrates were prepared to 4-fold concentration test solutions with 10 mL 0.1M K-buffer according to the concentration requirements.
(§6) Preparation of 0.2 mg/mL human liver microsomes (HLM) solution: […] of 20 mg/mL human liver microsomes was added to […] K-buffer, and the solution was stored in ice bath until use.
(§7) 600 μL of 0.2 mg/mL HLM was added to a 96-well plate, followed by the addition of 3 μL of a 400-fold test compound solution; 200 μL of 0.2 mg/mL HLM was added to a 96-well plate, and 1 μL of the diluted positive control inhibitor solution was added. 30 μL of the compound solution mixed with human liver microsomes was added into a 96-well plate, and 15 μL of substrate solution was added then. The solutions obtained above, and the prepared NADPH solution were pre-incubated at 37° C. for 5 min. 15 μL of the pre-warmed NADPH solution was added to the reaction plate, mixed well, to initiate the reaction. The reaction plate was incubated at 37° C., for 5 minutes (3A4), for 10 minutes (1A2, 2C9, 2D6), for 45 minutes (2C19). At the end of the reaction, 120 μL of acetonitrile containing internal standard was added to quenched the reaction. Samples were vortexed for 10 min, centrifuged at 5594 g for 15 min, and prepared for LC-MS/MS analysis.

[3] = molecular target: T2, CYP2C19 (Homo sapiens, UniProt P33261); assay: CYP inhibition in human liver microsomes; format: in vitro ADME; conditions: pH 7.4, read-out: CYP inhibition rate (%) 2C19
T2 construct: Human liver microsomes (Corning, Cat #452161); tissue Corning 452161; host or cells: human liver microsomes
T2 sequence (P33261 whole entry): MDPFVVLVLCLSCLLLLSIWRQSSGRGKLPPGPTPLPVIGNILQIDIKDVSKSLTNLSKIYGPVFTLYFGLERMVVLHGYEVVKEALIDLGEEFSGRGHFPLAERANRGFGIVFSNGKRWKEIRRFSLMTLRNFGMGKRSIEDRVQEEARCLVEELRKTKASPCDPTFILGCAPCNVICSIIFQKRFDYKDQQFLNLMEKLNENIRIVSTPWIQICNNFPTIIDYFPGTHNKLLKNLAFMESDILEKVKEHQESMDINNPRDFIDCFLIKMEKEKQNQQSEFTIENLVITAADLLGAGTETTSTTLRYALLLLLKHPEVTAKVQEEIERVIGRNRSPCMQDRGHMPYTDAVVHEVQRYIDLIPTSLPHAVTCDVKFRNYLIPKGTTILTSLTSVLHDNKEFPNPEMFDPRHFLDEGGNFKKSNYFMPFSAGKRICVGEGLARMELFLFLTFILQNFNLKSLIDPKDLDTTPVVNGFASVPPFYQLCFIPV
Excerpt: as §1, §2, §3, §4, §5, §6, §7

[4] = molecular target: T3, CYP1A2 (Homo sapiens, UniProt P05177); assay: CYP inhibition in human liver microsomes; format: in vitro ADME; conditions: pH 7.4, read-out: CYP inhibition rate (%) 1A2
T3 construct: Human liver microsomes (Corning, Cat #452161); tissue Corning 452161; host or cells: human liver microsomes
T3 sequence (P05177 1-516): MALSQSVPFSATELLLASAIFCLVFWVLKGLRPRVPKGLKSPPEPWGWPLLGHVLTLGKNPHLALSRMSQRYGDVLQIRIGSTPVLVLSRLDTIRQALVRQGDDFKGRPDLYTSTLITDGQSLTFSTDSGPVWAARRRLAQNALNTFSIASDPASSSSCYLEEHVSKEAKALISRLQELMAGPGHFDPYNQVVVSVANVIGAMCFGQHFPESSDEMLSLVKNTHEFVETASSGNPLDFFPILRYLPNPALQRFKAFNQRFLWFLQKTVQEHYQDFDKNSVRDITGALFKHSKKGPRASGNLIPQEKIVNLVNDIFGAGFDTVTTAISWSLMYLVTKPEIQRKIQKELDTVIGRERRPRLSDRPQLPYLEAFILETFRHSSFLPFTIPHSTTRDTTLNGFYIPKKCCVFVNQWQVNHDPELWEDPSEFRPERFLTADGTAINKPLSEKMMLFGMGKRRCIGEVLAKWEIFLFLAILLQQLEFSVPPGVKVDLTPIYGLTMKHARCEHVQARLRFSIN
Excerpt: as §1, §2, §3, §4, §5, §6, §7

[5] = molecular target: T4, CYP2D6 (Homo sapiens, UniProt P10635); assay: CYP inhibition in human liver microsomes; format: in vitro ADME; conditions: pH 7.4, read-out: CYP inhibition rate (%) 2D6
T4 construct: Human liver microsomes (Corning, Cat #452161); tissue Corning 452161; host or cells: human liver microsomes
T4 sequence (P10635 whole entry): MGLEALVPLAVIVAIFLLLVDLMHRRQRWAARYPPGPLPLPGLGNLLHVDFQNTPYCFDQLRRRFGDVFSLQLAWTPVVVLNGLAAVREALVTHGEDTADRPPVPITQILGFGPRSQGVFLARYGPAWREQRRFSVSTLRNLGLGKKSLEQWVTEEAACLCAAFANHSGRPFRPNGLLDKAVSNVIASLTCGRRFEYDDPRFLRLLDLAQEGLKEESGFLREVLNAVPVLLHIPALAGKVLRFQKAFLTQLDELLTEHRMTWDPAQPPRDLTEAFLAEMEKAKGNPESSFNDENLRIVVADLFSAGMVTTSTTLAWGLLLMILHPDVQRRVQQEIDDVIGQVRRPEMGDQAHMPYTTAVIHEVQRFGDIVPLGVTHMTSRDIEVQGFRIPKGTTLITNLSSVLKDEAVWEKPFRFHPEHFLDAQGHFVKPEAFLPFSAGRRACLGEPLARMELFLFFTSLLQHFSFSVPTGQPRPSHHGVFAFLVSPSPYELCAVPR
Excerpt: as §1, §2, §3, §4, §5, §6, §7

[6] = molecular target: T5, CYP3A4 (Homo sapiens, UniProt P08684); assay: CYP inhibition in human liver microsomes; format: in vitro ADME
T5 construct: Human liver microsomes (Corning, Cat #452161); tissue Corning 452161; host or cells: human liver microsomes
T5 sequence (P08684 whole entry): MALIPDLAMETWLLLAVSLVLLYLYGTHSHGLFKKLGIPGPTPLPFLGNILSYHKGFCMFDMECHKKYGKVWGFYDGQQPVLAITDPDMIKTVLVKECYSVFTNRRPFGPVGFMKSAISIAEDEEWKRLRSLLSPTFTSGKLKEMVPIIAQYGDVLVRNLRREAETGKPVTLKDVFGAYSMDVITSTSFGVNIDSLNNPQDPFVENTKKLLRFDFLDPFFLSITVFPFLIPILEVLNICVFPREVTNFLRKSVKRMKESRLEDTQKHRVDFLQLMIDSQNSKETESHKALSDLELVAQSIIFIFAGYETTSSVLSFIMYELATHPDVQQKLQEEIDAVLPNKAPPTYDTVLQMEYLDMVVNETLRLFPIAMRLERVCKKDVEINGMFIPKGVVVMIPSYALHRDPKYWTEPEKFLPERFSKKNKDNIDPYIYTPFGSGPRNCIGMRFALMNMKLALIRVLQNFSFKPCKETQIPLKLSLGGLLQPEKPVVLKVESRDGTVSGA
Excerpt: as §1, §2, §3, §4, §5, §6, §7

[7] = pH 7.4, probe midazolam, substrate midazolam, read-out: CYP inhibition rate (%) CYP3A4 (midazolam)
[8] = pH 7.4, probe testosterone, substrate testosterone, read-out: CYP inhibition rate (%) CYP3A4 (testosterone)

Compound | Tumor volume (mm^3) (Day 21) ([1]; 10 mpk) | TGI(%) ([1]; 10 mpk) | inhibition at 10 min, 10 µM [2] | inhibition at 45 min, 10 µM [3] | inhibition at 10 min, 10 µM [4] | inhibition at 10 min, 10 µM [5] | inhibition at 5 min, 10 µM [6, 7] | inhibition at 5 min, 10 µM [6, 8] | Tumor volume (mm^3) (Day 21) ([1]; 3 mpk) | TGI(%) ([1]; 3 mpk) | Tumor volume (mm^3) (Day 21) ([1]; 30 mpk) | TGI(%) ([1]; 30 mpk)
C=CC(=O)N1CCN(c2nc(=O)n(-c3c(C)ccnc3C(C)C)c3nc(-c4c(O)cccc4F)c(F)cc23)[C@@H](C)C1 (atropisomer, axis not shown) [AMG510, reference compound] | 432 mm^3 | 72.3% | 26.2% | 11.1% | 10.3% | 23.7% | 63.7% | 24.8% |  |  |  | 
C=CC(=O)N1CCN(c2c(C#N)cnc3c(F)c(-c4ccc(F)c5sc(N)nc45)c(Cl)cc23)C[C@H]1C [Example 8, 4-((R)-4-acryloyl-3-methylpiperazin-1-yl)-7-(2-amino-7-fluorobenzo[d]thiazol-4-yl)-6-chloro-8-fluoroquinoline-3-carbonitrile] |  |  | 49.9% | 31.2% | 17.6% | 13.8% | 22% | 16.9% |  |  |  | 
C=CC(=O)N1CCN(c2c(C#N)cnc3c(F)c(-c4ccc(F)c5sc(N)nc45)c(Cl)cc23)CC1 [Example 9, 4-(4-Acryloylpiperazin-1-yl)-7-(2-amino-7-fluorobenzo[d]thiazol-4-yl)-6-chloro-8-fluoroquinoline-3-carbonitrile] | 246 mm^3 | 89.8% | 42.5% | 34.9% | 13.6% | -11.4% | 24% | 30.9% | 665 mm^3 | 50.4% | 162 mm^3 | 97.7%
C=CC(=O)N1CCN(c2ncnc3c(F)c(-c4ccc(F)c5sc(N)nc45)c(Cl)cc23)CC1 [Ref. Comp. A, reference compound] |  |  | 52.4% | 74.3% | 73% | 32.6% | 11.1% | 10.9% |  |  |  | 
